According to the NIST ThermoML archive (doi:10.1016/j.fluid.2013.06.019):
± gives the expanded uncertainty stated by the source.

conditions: Crystal; Heating/Cooling curves

SMILES | Triple point temperature [K]
C=C(F)C(F)(F)F [2,3,3,3-tetrafluoro-1-propene] | 122.6 ± 2
F/C=C/C(F)(F)F [trans-1,3,3,3-tetrafluoropropene] | 168.8 ± 2
O=C=O [carbon dioxide] | 216.6 ± 2
